The values that follow come from PMC8286840, “Identifying SARS-CoV-2 antiviral compounds by screening for small molecule inhibitors of Nsp3 papain-like protease” (Biochemical Journal, 2021).

Counter-ions that a name gives are not always drawn. Like-named read-outs stand apart in the source and are kept apart here. Where a SMILES comes first, the peptide text is derived from it. [ ]: non-standard residue; d: D form. pGlu = O=C1CC[C@@H](C(=O)O)N1; Thz = O=C(O)[C@@H]1CSCN1

Test [1] addresses T1, SARS-CoV-2 PLpro (nsp3 1564–1878) (Severe acute respiratory syndrome coronavirus 2, UniProt P0DTD1). The test is described as follows: biochemical. Also noted: FRET-quenched peptide (Pro3) cleavage by PLpro, 10 min pre-incubation, slope over 20 min, normalised to no-compound control. The note with it: low concentration screen, read-out: % of control remaining.
The target of test [2] is T1, SARS-CoV-2 PLpro (nsp3 1564–1878). Put plainly: biochemical. Also noted: FRET-quenched peptide (Pro3) cleavage by PLpro, 10 min pre-incubation, slope over 20 min, normalised to no-compound control. Conditions: high concentration screen, read-out: % of control remaining.

As for `C=C[C@H]1CN2CC[C@H]1C[C@H]2[C@H](O)c1ccnc2ccc(OC)cc12` [Quinine sulfate], the remaining activity at 1.25 µM in test [1] (Well no.=1459) amounted to 98.4%. In test [2] (Well no.=1459), the remaining activity at 3.75 µM was 100%.
On to `COc1c2c(nc3ccccc13)OC(C(C)(O)CO)C2` (stereo not drawn) [Dubinidine], for which the remaining activity at 1.25 µM in test [1] (Well no.=486) was 106%; in test [1] (Well no.=3115), 102%. Besides, the figures for the remaining activity at 3.75 µM in test [2] (Well no.=486) and in test [2] (Well no.=3115) were 105% and 104%, respectively.
As to `CCCCOc1ccc(CC(=O)NO)cc1` [Bufexamac], in test [1] (Well no.=5265), the remaining activity at 1.25 µM is 101%. The remaining activity at 3.75 µM in test [2] (Well no.=5265) came to 99.5%.
Take `O=C1CC[C@@H](C(=O)N2CSC[C@H]2C(=O)O)N1` [Pidotimod] ([pGlu]-[Thz]-OH): the remaining activity at 1.25 µM in test [1] (Well no.=7508) amounted to 101%. Further, the remaining activity at 3.75 µM came out at 105% in test [2] (Well no.=4933) and 97.7% in test [2] (Well no.=7508).
As for `CN1CCN(C2Cc3ccccc3Sc3ccc(Cl)cc32)CC1` (racemic), in test [1] (Well no.=804), the remaining activity at 1.25 µM worked out at 104%. Moreover, in test [2] (Well no.=804), the remaining activity at 3.75 µM is 105%.
For `O=Nc1c(-c2c(O)[nH]c3ccccc23)[nH]c2ccccc12` [Indirubin-3'-oxime], the remaining activity at 1.25 µM in test [1] (Well no.=668) stood at 95.2%. Also, the remaining activity at 3.75 µM in test [2] (Well no.=668) stood at 92.9%.
Regarding `N[C@@H](Cn1oc(=O)[nH]c1=O)C(=O)O` [Quisqualic acid], the remaining activity at 1.25 µM in test [1] (Well no.=3535) was found to be 101%. In test [2] (Well no.=3535), the remaining activity at 3.75 µM was determined as 101%.
With `CN1C(=O)C[C@H](C(=O)O)[C@H]1c1cccnc1` [Trans-4-Cotininecarboxylic acid], the remaining activity at 1.25 µM in test [1] (Well no.=3200) stood at 95.4%. For the same molecule, in test [2] (Well no.=3200), the remaining activity at 3.75 µM came out at 97.7%.
As for `C[C@]12C=CC(=O)C=C1CC[C@@H]1C2=CC[C@]2(C)[C@@H](C(=O)CN3CCN(c4cc(N5CCCC5)nc(N5CCCC5)n4)CC3)CC[C@@H]12` [U-74389G maleate], in test [1] (Well no.=1236), the remaining activity at 1.25 µM was 104%. Moreover, the remaining activity at 3.75 µM in test [2] (Well no.=1236) amounted to 106%.
On to `COc1cccc2cc(-c3nc([C@H]4CC[C@H](C(=O)O)CC4)n4ncnc(N)c34)[nH]c12` [OSI-027], for which the remaining activity at 1.25 µM in test [1] (Well no.=4960) came to 99.2%. In addition, the remaining activity at 3.75 µM in test [2] (Well no.=4960) turned out to be 95.6%.
For `CSc1ccc(C(=O)c2[nH]c(=O)[nH]c2C)cc1` [Enoximone], the remaining activity at 1.25 µM in test [1] (Well no.=406) stood at 103%. Besides, the remaining activity at 3.75 µM in test [2] (Well no.=406) was 102%.
Take `COc1cccc(N(C)C(=S)Oc2ccc3c(c2)CCCC3)n1` [Liranaftate]: the remaining activity at 1.25 µM in test [1] (Well no.=4672) is 101%. The remaining activity at 3.75 µM in test [2] (Well no.=4672) was determined as 101%.
For the molecule `CCN1CCN(Cc2ccc(-c3cc4c(N[C@H](C)c5ccccc5)ncnc4[nH]3)cc2)CC1` [AEE788 (NVP-AEE788)], the remaining activity at 1.25 µM in test [1] (Well no.=5247) was determined as 102%. In test [2] (Well no.=5247), the remaining activity at 3.75 µM amounted to 102%.
Turning to `CC(C)=CCC[C@@H](C)[C@H]1CC[C@H]2[C@@H]3CC=C4C[C@@H](O)CC[C@]4(C)[C@H]3CC[C@]12C` [Desmosterol], the remaining activity at 1.25 µM in test [1] (Well no.=5972) stood at 101%. Further, the remaining activity at 3.75 µM in test [2] (Well no.=5972) was determined as 99%.
For the molecule `CCOc1ccc(NC(C)=O)cc1` [Phenacetin], the remaining activity at 1.25 µM in test [1] (Well no.=4948) came out at 98.7%. Further, the remaining activity at 3.75 µM in test [2] (Well no.=4948) amounted to 93.7%.
On to `CC/C=C\C[C@@H](/C=C/C=C\C/C=C\C/C=C\CCCC(=O)O)OO` [15(S)-HPEPE], for which, in test [1] (Well no.=4335), the remaining activity at 1.25 µM came out at 103%. The remaining activity at 3.75 µM in test [2] (Well no.=4335) is 102%.
Turning to `CS(=O)(=O)CCNCc1ccc(-c2ccc3ncnc(Nc4ccc(OCc5cccc(F)c5)c(Cl)c4)c3c2)o1` [Lapatinib ditosylate], the remaining activity at 1.25 µM in test [1] (Well no.=1714) turned out to be 105%. For the same molecule, the remaining activity at 3.75 µM in test [2] (Well no.=1714) was determined as 105%.
As for `O=C(C1CCCCC1)N1CC(=O)N2CCc3ccccc3C2C1` (stereo not drawn) [Praziquantel], the remaining activity at 1.25 µM amounted to 106% in test [1] (Well no.=908) and 102% in test [1] (Well no.=2155). For the same molecule, the figures for the remaining activity at 3.75 µM in test [2] (Well no.=908) and in test [2] (Well no.=2155) were 104% and 100%, respectively.
On to `O=C(O)C(O)Cc1ccc(O)c(O)c1` (stereo not drawn) [Sodium Danshensu], for which the remaining activity at 1.25 µM in test [1] (Well no.=4868) was 100%. In addition, the remaining activity at 3.75 µM in test [2] (Well no.=4868) was found to be 100%.
Turning to `C=CCc1ccc(O)c(-c2ccc(O)c(CC=C)c2)c1` [Honokiol], the remaining activity at 1.25 µM in test [1] (Well no.=3621) was found to be 97.6%. In addition, the remaining activity at 3.75 µM in test [2] (Well no.=3621) was found to be 93.8%.
Turning to `COC(=O)[C@@H](N)Cc1ccc(O)c(O)c1` [L-3,4-Dihydroxyphenylalanine methyl ester hydrochloride], in test [1] (Well no.=541), the remaining activity at 1.25 µM is 103%. The remaining activity at 3.75 µM in test [2] (Well no.=541) was 103%.
For the molecule `CN1C(=O)c2sccc2N(C)c2nc(Nc3ccc(S(N)(=O)=O)cc3)ncc21` [XMU-MP-1], the remaining activity at 1.25 µM in test [1] (Well no.=8268) stood at 97%. In addition, the remaining activity at 3.75 µM in test [2] (Well no.=8268) was 91.6%.
As for `O=C(O)CO` [Glycolic acid], the remaining activity at 1.25 µM in test [1] (Well no.=6981) worked out at 97.8%. In addition, the remaining activity at 3.75 µM in test [2] (Well no.=6981) was 98.4%.
With `CCc1ccc(Cc2ccc3c(c2)[C@]2(OC3)O[C@H](CO)[C@@H](O)[C@H](O)[C@H]2O)cc1` [Tofogliflozin(CSG 452)], the remaining activity at 1.25 µM in test [1] (Well no.=8776) is 101%. For the same molecule, the remaining activity at 3.75 µM in test [2] (Well no.=8776) amounted to 102%.
On to `CCCCC/C=C\C/C=C\CCCCCCCCCCC(=O)O` [12(Z), 15(Z)-Heneicosadienoic acid], for which, in test [1] (Well no.=4454), the remaining activity at 1.25 µM is 95.1%. Further, the remaining activity at 3.75 µM in test [2] (Well no.=4454) stood at 89.9%.
Regarding `CC(Oc1c(Cl)cccc1Cl)C1=NCCN1` (stereo not drawn) [Lofexidine.HCl], in test [1] (Well no.=1971), the remaining activity at 1.25 µM was 101%. For the same molecule, the remaining activity at 3.75 µM in test [2] (Well no.=1971) worked out at 102%.
In the case of `CN(C)/N=N/c1[nH]cnc1C(N)=O` [Dacarbazine], the remaining activity at 1.25 µM in test [1] (Well no.=1940) amounted to 103%. In test [2] (Well no.=1940), the remaining activity at 3.75 µM came out at 99.4%.
Take `NCCCC(N)(C(=O)O)C(F)F` (stereo not drawn) [Eflornithine hydrochloride hydrate]: the remaining activity at 1.25 µM in test [1] (Well no.=8636) is 104%. Moreover, the remaining activity at 3.75 µM in test [2] (Well no.=8636) was 95.7%.
Regarding `[N-]=[N+]=N[C@@H]1[C@H](O)[C@@H](n2ccc(=O)[nH]c2=O)O[C@H]1CO` [3'-Azido-3'-deoxy-beta-L-uridine], the remaining activity at 1.25 µM in test [1] (Well no.=7758) was 97.9%. Besides, the remaining activity at 3.75 µM in test [2] (Well no.=7758) came to 102%.
Turning to `CN[C@@H]1Cc2cccc3[nH]c(=O)n(c23)C1` [Sumanirole maleate], the remaining activity at 1.25 µM in test [1] (Well no.=5386) was 99.1%. The remaining activity at 3.75 µM in test [2] (Well no.=5386) turned out to be 104%.
Regarding `CC[C@@H](Nc1c(Nc2cccc(C(=O)N(C)C)c2O)c(=O)c1=O)c1ccc(C)o1` [SCH 527123], in test [1] (Well no.=7087), the remaining activity at 1.25 µM was determined as 102%. The remaining activity at 3.75 µM in test [2] (Well no.=7087) came out at 97.3%.
In the case of `O=C1NC(=O)C(c2cn(CCCO)c3ncccc23)=C1c1cnccn1` [GSK-3b Inhibitor XI], the remaining activity at 1.25 µM in test [1] (Well no.=2470) is 101%. Besides, the remaining activity at 3.75 µM in test [2] (Well no.=2470) was 102%.
